Read-outs that look alike come from different tables or passages of the source. Bounds are passed on as bounds.

This is an account of results in patent publication US12540136B2, “Pyrrolopyridine derivative and use thereof” (ST PHARM CO., LTD., priority 2020, dated 2026).

What all share (assay type): cell-based
Data set [1] can be described thus: Cytotoxicity, MTS dye reduction assay. As to conditions: human; MT-4 cells, MTS dye reduction, 6 days incubation; read-out: CC50, HIV-1(NL4-3) in MT-4 Cells. As for the experimental part: (§1) In order to determine the HIV-1 (Wild type) inhibitory effect of compounds of the present invention, a test was conducted as follows. The host cell was MT-4 cells and the virus strain was NL4-3 strain of HIV-1. The virus and cells were mixed in the presence of the compounds of the present invention, followed by incubation for 6 days. The antiviral effect was measured as a percentage decrease in viral cytopathic effect (CPE), and the cytotoxicity of the compounds was evaluated by MTS (CellTiter® 96 Reagent, Promega, Madison WI) dye reduction assay. 1.

Data set [2] concerns HIV-1 (NL4-3). The experiment in a line: HIV-1 (wild type) inhibitory effect, decrease in viral cytopathic effect (CPE) in MT-4 cells. As to conditions: Human immunodeficiency virus 1, NL43, MT4, 144 h; NL4-3 strain, MT-4 host cells, 6 days incubation, CPE reduction. The protocol: as §1
The test system of data set [3] is MT-4 cells. The experiment in a line: Cytotoxicity, MTS dye reduction assay. As for the experimental part: as §1

By CC50 is commonly meant the concentration that lowers cell viability or growth by half. As a reminder, the EC50 is the concentration giving half of the maximal effect. Low readings indicate an effect from little substance, high ones a need for much substance. Take `COCCOCCOC(=O)[C@@H](OC(C)(C)C)c1c(C)nc2c(c(C)c(C)n2Cc2cnn(C)c2)c1-c1ccc(Cl)cc1` [Example 16, 2-(2-Methoxyethoxy)ethyl (S)-2-(tert-butoxy)-2-(4-(4-chlorophenyl)-2,3,6-trimethyl-1-((1-methyl-1H-pyrazol-4-yl)methyl)-1H-pyrrolo[2,3-b]pyridin-5-yl)acetate]: the CC50 at 6 days in data set [1] was more than 10 µM. The EC50 in data set [2] was more than 10 µM. As to `Cc1nc2c(c(C)c(C)n2Cc2cnn(C)c2)c(-c2ccc(Cl)cc2)c1[C@H](OC(C)(C)C)C(=O)OCc1oc(=O)oc1C` [Example 4, (5-Methyl-2-oxo-1,3-dioxol-4-yl)methyl (S)-2-(tert-butoxy)-2-(4-(4-chlorophenyl)-2,3,6-trimethyl-1-((1-methyl-1H-pyrazol-4-yl)methyl)-1H-pyrrolo[2,3-b]pyridin-5-yl)acetate], in data set [1], the half-maximal cytotoxic concentration (CC50) at 6 days is more than 10 µM. Also, the EC50 in data set [2] is 0.00527 µM.

As to `Cc1nc2c(c(C)c(C)n2Cc2cnn(C)c2)c(-c2ccc(Cl)cc2)c1[C@H](OC(C)(C)C)C(N)=O` [Example 5, (S)-2-(tert-butoxy)-2-(4-(4-chlorophenyl)-2,3,6-trimethyl-1-((1-methyl-1H-pyrazol-4-yl)methyl)-1H-pyrrolo[2,3-b]pyridin-5-yl)acetamide], the cytotoxic concentration (CC50) at 6 days in data set [1] was more than 10 µM. The EC50 in data set [2] is more than 10 µM.

Take `Cc1nc2c(c(C)c(C)n2Cc2cnn(C)c2)c(-c2ccc(Cl)cc2)c1[C@@H](C#N)OC(C)(C)C` [Example 6, (S)-2-(tert-butoxy)-2-(4-(4-chlorophenyl)-2,3,6-trimethyl-1-((1-methyl-1H-pyrazol-4-yl)methyl)-1H-pyrrolo[2,3-b]pyridin-5-yl)acetonitrile]: the cytotoxic concentration (CC50) at 6 days in data set [1] is more than 10 µM. This molecule also showed an EC50 in data set [2] of more than 10 µM.

`CCCCCCCCCCCCCOC(=O)[C@@H](OC(C)(C)C)c1c(C)nc2c(c(C)c(C)n2Cc2cnn(C)c2)c1-c1ccc(Cl)cc1` [Example 1, Tridecyl (S)-2-(tert-butoxy)-2-(4-(4-chlorophenyl)-2,3,6-trimethyl-1-((1-methyl-1H-pyrazol-4-yl)methyl)-1H-pyrrolo[2,3-b]pyridin-5-yl)acetate]: the 50% cytotoxic concentration (CC50) at 6 days in data set [1] was more than 10 µM. The molecule further came in with an EC50 in data set [2] of more than 10 µM. For the molecule `Cc1nc2c(c(C)c(C)n2Cc2cnn(C)c2)c(-c2ccc(Cl)cc2)c1[C@H](OC(C)(C)C)/C(N)=N/O` [Example 12, (S,Z)-2-(tert-butoxy)-2-(4-(4-chlorophenyl)-2,3,6-trimethyl-1-((1-methyl-1H-pyrazol-4-yl)methyl)-1H-pyrrole[2,3-b]pyridin-5-yl)-N′-hydroxyacetimidamide], the half-maximal cytotoxic concentration (CC50) in data set [3] (MT-4 cells, MTS dye reduction, 6 days incubation, read-out: CC50, HIV-1(NL4-3) in MT-4 Cells) is more than 10 µM. Consider `CNC(=O)[C@@H](OC(C)(C)C)c1c(C)nc2c(c(C)c(C)n2Cc2cnn(C)c2)c1-c1ccc(Cl)cc1` [Example 8, (S)-2-(tert-butoxy)-2-(4-(4-chlorophenyl)-2,3,6-trimethyl-1-((1-methyl-1H-pyrazol-4-yl)methyl)-1H-pyrrolo[2,3-b]pyridin-5-yl)-N-methylacetamide], for which, in data set [1], the cytotoxic concentration (CC50) at 6 days came to 4.98 µM. For the molecule `Cc1nc2c(c(C)c(C)n2Cc2cnn(C)c2)c(-c2ccc(Cl)cc2)c1[C@H](OC(C)(C)C)c1nnn[nH]1` [Example 7, (S)-5-(tert-butoxy(1H-tetrazol-5-yl)methyl)-4-(4-chlorophenyl)-2,3,6-trimethyl-1-((1-methyl-1H-pyrazol-4-yl)methyl)-1H-pyrrolo[2,3-b]pyridine], the half-maximal cytotoxic concentration (CC50) at 6 days in data set [1] was more than 10 µM. Besides, it took 0.361 µM to reach a half-maximal effect in data set [2] (EC50). The like results for `CON(C)C(=O)[C@@H](OC(C)(C)C)c1c(C)nc2c(c(C)c(C)n2Cc2cnn(C)c2)c1-c1ccc(Cl)cc1` [Example 10, (S)-2-(tert-butoxy)-2-(4-(4-chlorophenyl)-2,3,6-trimethyl-1-((1-methyl-1H-pyrazol-4-yl)methyl)-1H-pyrrolo[2,3-b]pyridin-5-yl)-N-methoxy-N-methylacetamide] were, in that order, more than 10 µM and more than 10 µM. In turn, `Cc1nc([C@@H](OC(C)(C)C)c2c(C)nc3c(c(C)c(C)n3Cc3cnn(C)c3)c2-c2ccc(Cl)cc2)no1` [Example 13, (S)-3-(tert-butoxy (4-(4-chlorophenyl)-2,3,6-trimethyl-1-((1-methyl-1-1H-pyrazol-4-yl)methyl)-1H-pyrrolo[2,3-b]pyridin-5-yl)methyl)-5-methyl-1,2,4-oxadiazole] returned a 50% cytotoxic concentration (CC50) in data set [3] of more than 10 µM.

On to `COCCn1c(C)c(C)c2c(-c3ccc(Cl)cc3)c([C@H](OC(C)(C)C)C(=O)OCc3oc(=O)oc3C)c(C)nc21` [Example 3, (5-Methyl-2-oxo-1,3-dioxol-4-yl)methyl (S)-2-(tert-butoxy)-2-(4-(4-chlorophenyl)-1-(2-methoxyethyl)-2,3,6-trimethyl-1H-pyrrolo[2,3-b]pyridin-5-yl)acetate], for which the half-maximal cytotoxic concentration (CC50) at 6 days in data set [1] was more than 10 µM. Besides, in data set [2], the EC50 stood at 0.0227 µM.

Turning to `Cc1nc2c(c(C)c(C)n2CC2CCO2)c(-c2ccc(Cl)cc2)c1[C@H](OC(C)(C)C)C(=O)OCc1oc(=O)oc1C` (stereo partly drawn) [Example 2, (5-Methyl-2-oxo-1,3-dioxol-4-yl)methyl (2S)-2-(tert-butoxy)-2-(4-(4-chlorophenyl)-2,3,6-trimethyl-1-(oxetan-2-ylmethyl)-1H-pyrrolo[2,3-b]pyridin-5-yl)acetate], the CC50 at 6 days in data set [1] is more than 10 µM. Also, the response in data set [2] was half-maximal at 0.12 µM (EC50).

Turning to `CONC(=O)[C@@H](OC(C)(C)C)c1c(C)nc2c(c(C)c(C)n2Cc2cnn(C)c2)c1-c1ccc(Cl)cc1` [Example 9, (S)-2-(tert-butoxy)-2-(4-(4-chlorophenyl)-2,3,6-trimethyl-1-((1-methyl-1H-pyrazol-4-yl)methyl)-1H-pyrrolo[2,3-b]pyridin-5-yl)-N-methoxyacetamide], the CC50 at 6 days in data set [1] came out at 8.89 µM. Regarding `COC(=O)OCOC(=O)[C@@H](OC(C)(C)C)c1c(C)nc2c(c(C)c(C)n2Cc2cnn(C)c2)c1-c1ccc(Cl)cc1` [Example 15, ((Methoxycarbonyl)oxy)methyl (S)-2-(tert-butoxy)-2-(4-(4-chlorophenyl)-2,3,6-trimethyl-1-((1-methyl-1H-pyrazol-4-yl)methyl)-1H-pyrrolo[2,3-b]pyridin-5-yl)acetate], in data set [1], the CC50 at 6 days is more than 10 µM. Besides, in data set [2], the response was half-maximal at 0.0316 µM (EC50).

With `Cc1nc2c(c(C)c(C)n2Cc2cnn(C)c2)c(-c2ccc(Cl)cc2)c1[C@H](OC(C)(C)C)C(=O)Nc1nn[nH]n1` [Example 14, (S)-2-(tert-butoxy)-2-(4-(4-chlorophenyl)-2,3,6-trimethyl-1-((1-methyl-1H-pyrazol-4-yl)methyl)-1H-pyrrolo[2,3-b]pyridin-5-yl)-N-(2H-tetrazol-5-yl)acetamide], the CC50 at 6 days in data set [1] is more than 10 µM. Besides, the EC50 in data set [2] is more than 10 µM. Take `Cc1nc2c(c(C)c(C)n2Cc2cnn(C)c2)c(-c2ccc(Cl)cc2)c1[C@H](OC(C)(C)C)C(=O)NO` [Example 11, (S)-2-(tert-butoxy)-2-(4-(4-chlorophenyl)-2,3,6-trimethyl-1-((1-methyl-1H-pyrazol-4-yl)methyl)-1H-pyrrolo[2,3-b]pyridin-5-yl)-N-hydroxyacetamide]: the cytotoxic concentration (CC50) at 6 days in data set [1] is 3.16 µM.
